Data published in PubChem BioAssay (NCI).
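Results reflect a 48-hour exposure of cells in 96-well plates to compound at five concentrations. GI50 is the concentration that inhibits growth by half. The concentration for full growth arrest is given as TGI.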

Assays:
Assay in all cases: NCI anticancer screen, dose series, 48 h; in the data active = GI50 below about 0.43 µM; inactive = the rest
MALME-3M melanoma = system: MALME-3M melanoma
U251 CNS = system: U251 CNS
CCRF-CEM leukemia = system: CCRF-CEM leukemia
CAKI-1 renal = system: CAKI-1 renal
SNB-19 CNS = system: SNB-19 CNS
SK-MEL-5 melanoma = system: SK-MEL-5 melanoma
UO-31 renal = system: UO-31 renal
M19-MEL melanoma = system: M19-MEL melanoma
EKVX NSCLC = system: EKVX NSCLC
COLO 205 colon = system: COLO 205 colon
M14 melanoma = system: M14 melanoma
NCI-H460 lung = system: NCI-H460 lung
A549 NSCLC = system: A549 NSCLC
SK-OV-3 ovarian = system: SK-OV-3 ovarian
RPMI-8226 leukemia = system: RPMI-8226 leukemia
SF-295 CNS = system: SF-295 CNS
SF-539 CNS = system: SF-539 CNS
SK-MEL-2 melanoma = system: SK-MEL-2 melanoma
786-0 renal = system: 786-0 renal
K-562 leukemia = system: K-562 leukemia
OVCAR-3 ovarian = system: OVCAR-3 ovarian
MOLT-4 leukemia = system: MOLT-4 leukemia
SNB-78 CNS = system: SNB-78 CNS
A498 renal = system: A498 renal
UACC-62 melanoma = system: UACC-62 melanoma
KM20L2 colon = system: KM20L2 colon
OVCAR-4 ovarian = system: OVCAR-4 ovarian
LXFL 529 NSCLC = system: LXFL 529 NSCLC
DMS 114 small cell lung = system: DMS 114 small cell lung
KM12 colon = system: KM12 colon
HL-60(TB) leukemia = system: HL-60(TB) leukemia
ACHN renal = system: ACHN renal
DMS 273 small cell lung = system: DMS 273 small cell lung
HCT-15 colon = system: HCT-15 colon
IGROV1 ovarian = system: IGROV1 ovarian
SW-620 colon = system: SW-620 colon
OVCAR-5 ovarian = system: OVCAR-5 ovarian
OVCAR-8 ovarian = system: OVCAR-8 ovarian
UACC-257 melanoma = system: UACC-257 melanoma
LOX IMVI melanoma = system: LOX IMVI melanoma
HCT-116 colon = system: HCT-116 colon
HOP-62 NSCLC = system: HOP-62 NSCLC
DLD-1 colon = system: DLD-1 colon
RXF-631 renal = system: RXF-631 renal
TK-10 renal = system: TK-10 renal
HOP-92 NSCLC = system: HOP-92 NSCLC
HCC-2998 colon = system: HCC-2998 colon
SF-268 CNS = system: SF-268 CNS
HT29 colon = system: HT29 colon
NCI-H226 lung = system: NCI-H226 lung
SNB-75 CNS = system: SNB-75 CNS
NCI-H23 lung = system: NCI-H23 lung
SR leukemia = system: SR leukemia
SK-MEL-28 melanoma = system: SK-MEL-28 melanoma
NCI-H522 lung = system: NCI-H522 lung
XF 498 CNS = system: XF 498 CNS
HOP-18 NSCLC = system: HOP-18 NSCLC
RXF 393 renal = system: RXF 393 renal
SN12C renal = system: SN12C renal

NS(=O)(=O)c1cc2c(cc1Cl)NC(/C(=N/NC(=O)c1ccncc1)C1C(=O)NC(=O)NC1=O)=NS2(=O)=O
> 100 µM: TGI (MALME-3M melanoma) | TGI (U251 CNS) | TGI (CCRF-CEM leukemia) | TGI (CAKI-1 renal) | TGI (SNB-19 CNS) | TGI (SK-MEL-5 melanoma) | TGI (UO-31 renal) | TGI (M19-MEL melanoma) | TGI (EKVX NSCLC) | TGI (COLO 205 colon) | TGI (M14 melanoma) | TGI (NCI-H460 lung) | TGI (A549 NSCLC) | TGI (SK-OV-3 ovarian) | TGI (RPMI-8226 leukemia) | TGI (SF-295 CNS) | TGI (SF-539 CNS) | TGI (SK-MEL-2 melanoma) | TGI (786-0 renal) | TGI (K-562 leukemia) | TGI (OVCAR-3 ovarian) | TGI (MOLT-4 leukemia) | TGI (SNB-78 CNS) | TGI (A498 renal) | TGI (UACC-62 melanoma) | TGI (KM20L2 colon) | TGI (OVCAR-4 ovarian) | TGI (LXFL 529 NSCLC) | TGI (DMS 114 small cell lung) | TGI (KM12 colon) | TGI (HL-60(TB) leukemia) | TGI (ACHN renal) | TGI (DMS 273 small cell lung) | TGI (HCT-15 colon) | TGI (IGROV1 ovarian) | TGI (SW-620 colon) | TGI (OVCAR-5 ovarian) | TGI (OVCAR-8 ovarian) | TGI (UACC-257 melanoma) | TGI (LOX IMVI melanoma) | TGI (HCT-116 colon) | TGI (HOP-62 NSCLC) | TGI (DLD-1 colon) | TGI (RXF-631 renal) | TGI (TK-10 renal) | TGI (HOP-92 NSCLC) | TGI (HCC-2998 colon)

NC(=O)c1cn(C2OC(CO)C(O)C2O)c(=O)[nH]c1=O (configuration not stated)
> 100 µM: TGI (U251 CNS) | TGI (CCRF-CEM leukemia) | TGI (CAKI-1 renal) | TGI (SK-MEL-5 melanoma) | TGI (UO-31 renal) | TGI (M19-MEL melanoma) | TGI (EKVX NSCLC) | TGI (COLO 205 colon) | TGI (SF-268 CNS) | TGI (M14 melanoma) | TGI (HT29 colon) | TGI (NCI-H226 lung) | TGI (NCI-H460 lung) | TGI (SNB-75 CNS) | TGI (A549 NSCLC) | TGI (SK-OV-3 ovarian) | TGI (NCI-H23 lung) | TGI (SR leukemia) | TGI (RPMI-8226 leukemia) | TGI (SF-295 CNS) | TGI (SF-539 CNS) | TGI (SK-MEL-2 melanoma) | TGI (786-0 renal) | TGI (K-562 leukemia) | TGI (OVCAR-3 ovarian) | TGI (MOLT-4 leukemia) | TGI (SNB-78 CNS) | TGI (A498 renal) | TGI (UACC-62 melanoma) | TGI (OVCAR-4 ovarian) | TGI (LXFL 529 NSCLC) | TGI (DMS 114 small cell lung) | TGI (KM12 colon) | TGI (HL-60(TB) leukemia) | TGI (ACHN renal) | TGI (DMS 273 small cell lung) | TGI (HCT-15 colon) | TGI (IGROV1 ovarian) | TGI (SW-620 colon) | TGI (OVCAR-5 ovarian) | TGI (OVCAR-8 ovarian) | TGI (UACC-257 melanoma) | TGI (LOX IMVI melanoma) | TGI (HCT-116 colon) | TGI (HOP-62 NSCLC) | TGI (SK-MEL-28 melanoma) | TGI (DLD-1 colon) | TGI (RXF-631 renal) | TGI (TK-10 renal) | TGI (HOP-92 NSCLC) | TGI (NCI-H522 lung)

COC[C@@H]1[C@H]2OC(C)(C)O[C@H]2C(=O)N1C(=O)c1ccc(OC)cc1
> 100 µM: TGI (MALME-3M melanoma) | TGI (U251 CNS) | TGI (CCRF-CEM leukemia) | TGI (CAKI-1 renal) | TGI (SNB-19 CNS) | TGI (SK-MEL-5 melanoma) | TGI (UO-31 renal) | TGI (M19-MEL melanoma) | TGI (XF 498 CNS) | TGI (EKVX NSCLC) | TGI (COLO 205 colon) | TGI (SF-268 CNS) | TGI (M14 melanoma) | TGI (HOP-18 NSCLC) | TGI (HT29 colon) | TGI (RXF 393 renal) | TGI (NCI-H226 lung) | TGI (NCI-H460 lung) | TGI (SN12C renal) | TGI (SNB-75 CNS) | TGI (A549 NSCLC) | TGI (SK-OV-3 ovarian) | TGI (NCI-H23 lung) | TGI (SR leukemia) | TGI (RPMI-8226 leukemia) | TGI (SF-295 CNS) | TGI (SF-539 CNS) | TGI (SK-MEL-2 melanoma) | TGI (786-0 renal) | TGI (K-562 leukemia) | TGI (OVCAR-3 ovarian) | TGI (MOLT-4 leukemia) | TGI (SNB-78 CNS) | TGI (A498 renal) | TGI (UACC-62 melanoma) | TGI (KM20L2 colon) | TGI (OVCAR-4 ovarian) | TGI (LXFL 529 NSCLC) | TGI (DMS 114 small cell lung) | TGI (KM12 colon) | TGI (HL-60(TB) leukemia) | TGI (ACHN renal) | TGI (DMS 273 small cell lung) | TGI (HCT-15 colon) | TGI (IGROV1 ovarian) | TGI (SW-620 colon) | TGI (OVCAR-5 ovarian) | TGI (OVCAR-8 ovarian) | TGI (UACC-257 melanoma) | TGI (LOX IMVI melanoma) | TGI (HCT-116 colon) | TGI (HOP-62 NSCLC) | TGI (SK-MEL-28 melanoma) | TGI (DLD-1 colon) | TGI (TK-10 renal) | TGI (HOP-92 NSCLC) | TGI (NCI-H522 lung) | TGI (HCC-2998 colon)

CSC1N=CNc2c1sc(=S)n2-c1ccccc1 (configuration not stated)
84.7 µM: TGI (SNB-75 CNS)
> 100 µM: TGI (MALME-3M melanoma) | TGI (U251 CNS) | TGI (CAKI-1 renal) | TGI (SNB-19 CNS) | TGI (SK-MEL-5 melanoma) | TGI (UO-31 renal) | TGI (M19-MEL melanoma) | TGI (XF 498 CNS) | TGI (EKVX NSCLC) | TGI (COLO 205 colon) | TGI (SF-268 CNS) | TGI (M14 melanoma) | TGI (HOP-18 NSCLC) | TGI (HT29 colon) | TGI (RXF 393 renal) | TGI (NCI-H226 lung) | TGI (NCI-H460 lung) | TGI (SN12C renal) | TGI (A549 NSCLC) | TGI (SK-OV-3 ovarian) | TGI (NCI-H23 lung) | TGI (SR leukemia) | TGI (RPMI-8226 leukemia) | TGI (SF-295 CNS) | TGI (SF-539 CNS) | TGI (SK-MEL-2 melanoma) | TGI (786-0 renal) | TGI (OVCAR-3 ovarian) | TGI (MOLT-4 leukemia) | TGI (SNB-78 CNS) | TGI (A498 renal) | TGI (UACC-62 melanoma) | TGI (KM20L2 colon) | TGI (OVCAR-4 ovarian) | TGI (LXFL 529 NSCLC) | TGI (DMS 114 small cell lung) | TGI (KM12 colon) | TGI (ACHN renal) | TGI (DMS 273 small cell lung) | TGI (HCT-15 colon) | TGI (IGROV1 ovarian) | TGI (SW-620 colon) | TGI (OVCAR-5 ovarian) | TGI (OVCAR-8 ovarian) | TGI (UACC-257 melanoma) | TGI (LOX IMVI melanoma) | TGI (HCT-116 colon) | TGI (SK-MEL-28 melanoma) | TGI (DLD-1 colon) | TGI (TK-10 renal) | TGI (HOP-92 NSCLC) | TGI (NCI-H522 lung) | TGI (HCC-2998 colon)
74.4 µM: TGI (HOP-62 NSCLC)

Nc1ccccc1Nc1ccccc1C(=O)[O-].Nc1ccccc1Nc1ccccc1C(=O)[O-].[Ni+2]
86 µM: TGI (NCI-H522 lung)
inactive: GI50 (RXF 393 renal) 60.1 µM | GI50 (NCI-H226 lung) > 100 µM | GI50 (SR leukemia) > 100 µM | GI50 (OVCAR-4 ovarian) 67.8 µM | GI50 (HL-60(TB) leukemia) > 100 µM | GI50 (LOX IMVI melanoma) > 100 µM | GI50 (RXF-631 renal) > 100 µM | GI50 (HOP-92 NSCLC) > 100 µM
> 100 µM: TGI (MALME-3M melanoma) | TGI (U251 CNS) | TGI (CCRF-CEM leukemia) | TGI (CAKI-1 renal) | TGI (SNB-19 CNS) | TGI (SK-MEL-5 melanoma) | TGI (UO-31 renal) | TGI (EKVX NSCLC) | TGI (COLO 205 colon) | TGI (SF-268 CNS) | TGI (M14 melanoma) | TGI (HT29 colon) | TGI (RXF 393 renal) | TGI (NCI-H226 lung) | TGI (NCI-H460 lung) | TGI (SN12C renal) | TGI (SNB-75 CNS) | TGI (A549 NSCLC) | TGI (SK-OV-3 ovarian) | TGI (NCI-H23 lung) | TGI (SR leukemia) | TGI (RPMI-8226 leukemia) | TGI (SF-295 CNS) | TGI (SF-539 CNS) | TGI (786-0 renal) | TGI (K-562 leukemia) | TGI (OVCAR-3 ovarian) | TGI (MOLT-4 leukemia) | TGI (UACC-62 melanoma) | TGI (KM20L2 colon) | TGI (OVCAR-4 ovarian) | TGI (KM12 colon) | TGI (HL-60(TB) leukemia) | TGI (ACHN renal) | TGI (HCT-15 colon) | TGI (IGROV1 ovarian) | TGI (SW-620 colon) | TGI (OVCAR-5 ovarian) | TGI (OVCAR-8 ovarian) | TGI (UACC-257 melanoma) | TGI (LOX IMVI melanoma) | TGI (HCT-116 colon) | TGI (SK-MEL-28 melanoma) | TGI (RXF-631 renal) | TGI (TK-10 renal) | TGI (HOP-92 NSCLC) | TGI (HCC-2998 colon)
